The record followed here is patent publication US5047397A, “Linear analogs of atrial natriuretic peptides” (California Biotechnology Inc., priority 1988, dated 1991).

SMILES strings stand for the structures. Where a SMILES comes first, the peptide text is derived from it. [ ]: non-standard residue; d: D form. The star is where a group is joined. Phenylacetyl(4-Ph) = O=C(Cc1ccc(-c2ccccc2)cc1)*; Propanoyl(3,3-Ph2) = O=C(CC(c1ccccc1)c1ccccc1)*; Acetyl(1-naphthyloxy) = O=C(COc1cccc2ccccc12)*; Acetyl(2-naphthyloxy) = O=C(COc1ccc2ccccc2c1)*; Acetyl(2-naphthyl) = O=C(Cc1ccc2ccccc2c1)*; Fmoc = O=C(OCC1c2ccccc2-c2ccccc21)*; Cyclohexylacetyl = O=C(CC1CCCCC1)*; Aib = CC(C)(N)C(=O)O; Ahx = NCCCCCC(=O)O; Ava = NCCCCC(=O)O; GABA = NCCCC(=O)O; NHiBu = CC(C)CN*; Sar = CNCC(=O)O

The target in this assay is T1, specific ANP receptor sites on BASM or BAE cells (Bos taurus, UniProt P10730).
T1 construct: specific receptor sites on BASM or BAE cells; endogenous in cells; host or cells: cultured BASM and BAE cells
T1 sequence (P10730 42-537): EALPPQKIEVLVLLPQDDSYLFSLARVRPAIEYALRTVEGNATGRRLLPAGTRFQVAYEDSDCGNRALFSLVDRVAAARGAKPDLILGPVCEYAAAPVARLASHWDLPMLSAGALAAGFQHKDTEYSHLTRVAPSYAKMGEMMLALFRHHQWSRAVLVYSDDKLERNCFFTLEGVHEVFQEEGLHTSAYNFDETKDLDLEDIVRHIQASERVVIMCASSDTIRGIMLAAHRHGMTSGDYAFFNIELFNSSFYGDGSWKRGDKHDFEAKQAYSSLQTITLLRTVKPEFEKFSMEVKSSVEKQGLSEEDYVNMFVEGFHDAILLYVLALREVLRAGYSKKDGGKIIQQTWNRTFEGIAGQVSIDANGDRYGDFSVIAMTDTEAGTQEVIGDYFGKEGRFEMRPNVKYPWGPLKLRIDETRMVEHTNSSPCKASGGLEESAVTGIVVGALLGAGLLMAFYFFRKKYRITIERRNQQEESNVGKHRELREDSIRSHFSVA
In words: Competitive displacement receptor binding of (125I)-rANP(126-150) on cultured cells. As to conditions: concentration of unlabeled peptide displacing 50% of maximal binding of 0.5 nM (125I)-rANP(126-150); BASM or BAE cells. The arrangement: species or system bovine. The source says:
Analogous "competitive displacement" receptor binding assays are considered commonplace in the art for examining specific ligand-receptor interactions.
Assuming these ANP analogs act at one or more ANP receptor sites, then increased receptor affinity should reflect increased biological potency.
For the compound `CC[C@H](C)[C@H](NC(=O)[C@H](CCCNC(=N)N)NC(=O)[C@H](CC(=O)O)NC(=O)[C@@H](NC(=O)[C@H](CCCNC(=N)N)NC(=O)CNC(=O)CNC(=O)Cc1ccc2ccccc2c1)[C@@H](C)CC)C(N)=O` [AP314, (2-NA)--G--G--R--I--D--R--I--NH2] ({Acetyl(2-naphthyl)}-GGRIDRI-NH2), the “Ki(app)” value was determined as 0.0145 µM.
As to `CC[C@H](C)[C@H](NC(=O)[C@H](CCCNC(=N)N)NC(=O)[C@H](CC(=O)O)NC(=O)[C@@H](NC(=O)[C@H](CCCNC(=N)N)NC(=O)CNC(=O)CNC(=O)COc1cccc2ccccc12)[C@@H](C)CC)C(N)=O` [AP316, (1-NOA)--G--G--R--I--D--R--I--NH2] ({Acetyl(1-naphthyloxy)}-GGRIDRI-NH2), the “Ki(app)” value amounted to 0.0504 µM.
`CC[C@H](C)[C@H](NC(=O)[C@H](CCCNC(=N)N)NC(=O)[C@H](CC(=O)O)NC(=O)[C@@H](NC(=O)[C@H](CCCNC(=N)N)NC(=O)CNC(=O)CNC(=O)Cc1ccc(-c2ccccc2)cc1)[C@@H](C)CC)C(N)=O` [AP317, (4-BPA)--G--G--R--I--D--R--I--NH2] ({Phenylacetyl(4-Ph)}-GGRIDRI-NH2): the “Ki(app)” value was 0.1238 µM.
As for `CC[C@H](C)[C@H](NC(=O)[C@H](CCCNC(=N)N)NC(=O)[C@H](CC(=O)O)NC(=O)[C@@H](NC(=O)[C@H](CCCNC(=N)N)NC(=O)CNC(=O)CNC(=O)COc1ccc2ccccc2c1)[C@@H](C)CC)C(=O)NCC(=O)N[C@@H](C)C(N)=O` [AP318, (2-NOA)--G--G--R--I--D--R--I--G--A--NH2] ({Acetyl(2-naphthyloxy)}-GGRIDRIGA-NH2), the “Ki(app)” value was 0.0087 µM.
Regarding `CC[C@H](C)[C@H](NC(=O)[C@H](CCCNC(=N)N)NC(=O)[C@H](CC(=O)O)NC(=O)[C@@H](NC(=O)[C@H](CCCNC(=N)N)NC(=O)CNC(=O)CNC(=O)COc1ccc2ccccc2c1)[C@@H](C)CC)C(N)=O` [AP319, (2-NOA)--G--G--R--I--D--R--I--NH2] ({Acetyl(2-naphthyloxy)}-GGRIDRI-NH2), the “Ki(app)” value turned out to be 0.006 µM.
Next, `CC[C@H](C)[C@H](NC(=O)[C@H](CCCNC(=N)N)NC(=O)[C@H](CC(=O)O)NC(=O)[C@@H](NC(=O)[C@H](CCCNC(=N)N)NC(=O)CN(C)C(=O)CNC(=O)Cc1ccc2ccccc2c1)[C@@H](C)CC)C(N)=O` [AP320, (2-NA)--G--(Sar)--R--I--D--R--I--NH2] ({Acetyl(2-naphthyl)}-G[Sar]RIDRI-NH2): 0.0474 µM; `CC[C@H](C)[C@H](NC(=O)[C@H](CCCNC(=N)N)NC(=O)[C@H](CC(=O)O)NC(=O)[C@@H](NC(=O)[C@H](CCCNC(=N)N)NC(=O)C(C)(C)NC(=O)CNC(=O)Cc1ccc2ccccc2c1)[C@@H](C)CC)C(N)=O` [AP321, (2-NA)--G--(Aib)--R--I--D--R--I--NH2] ({Acetyl(2-naphthyl)}-G[Aib]RIDRI-NH2): 0.033 µM; `CC[C@H](C)[C@H](NC(=O)[C@H](CCCNC(=N)N)NC(=O)[C@H](CC(=O)O)NC(=O)[C@@H](NC(=O)[C@H](CCCNC(=N)N)NC(=O)CNC(=O)[C@@H](C)NC(=O)COc1ccc2ccccc2c1)[C@@H](C)CC)C(N)=O` [AP322, (2-NOA)--A^ --G--R--I--D--R--I--NH2] ({Acetyl(2-naphthyloxy)}-[dA]GRIDRI-NH2): more than 0.1 µM.
With `CC[C@H](C)[C@H](NC(=O)[C@H](CCCNC(=N)N)NC(=O)[C@H](CC(=O)O)NC(=O)[C@@H](NC(=O)[C@H](CCCNC(=N)N)NC(=O)CCCCNC(=O)OCC1c2ccccc2-c2ccccc21)[C@@H](C)CC)C(N)=O` [AP323, (FMOC)--NH(CH2)4 CO--R--I--D--R--I--NH2] ({Fmoc-Ava}-RIDRI-NH2), the “Ki(app)” value was 0.1626 µM.
Regarding `CC[C@H](C)[C@H](NC(=O)[C@H](CCCNC(=N)N)NC(=O)[C@H](CC(=O)O)NC(=O)[C@@H](NC(=O)[C@H](CCCNC(=N)N)NC(=O)CCCCNC(=O)Cc1ccc2ccccc2c1)[C@@H](C)CC)C(N)=O` [AP324, (2-NA)--NH(CH2)4 CO--R--I--D--R--I--NH2] ({Acetyl(2-naphthyl)-Ava}-RIDRI-NH2), the “Ki(app)” value is 0.0485 µM.
On to `CC[C@H](C)[C@H](NC(=O)[C@H](CCCNC(=N)N)NC(=O)[C@H](CC(=O)O)NC(=O)[C@@H](NC(=O)[C@H](CCCNC(=N)N)NC(=O)CCCCCNC(=O)COc1ccc2ccccc2c1)[C@@H](C)CC)C(N)=O` [AP325, (2-NOA)--NH(CH2)5 CO--R--I--D--R--I--NH2] ({Acetyl(2-naphthyloxy)-Ahx}-RIDRI-NH2), for which the “Ki(app)” value is more than 0.1 µM.
Take `CC[C@H](C)[C@H](NC(=O)[C@H](CCCNC(=N)N)NC(=O)[C@H](CC(=O)O)NC(=O)[C@@H](NC(=O)[C@H](CCCNC(=N)N)NC(=O)CCCNC(=O)Cc1ccc2ccccc2c1)[C@@H](C)CC)C(N)=O` [AP327, (2-NA)--NH(CH2)3 CO--R--I-- D--R--I--NH2] ({Acetyl(2-naphthyl)-GABA}-RIDRI-NH2): the “Ki(app)” value was determined as 0.184 µM.
Turning to `CCNC(=O)[C@@H](NC(=O)[C@H](CCCNC(=N)N)NC(=O)[C@H](CC(=O)O)NC(=O)[C@@H](NC(=O)[C@H](CCCNC(=N)N)NC(=O)CNC(=O)CNC(=O)Cc1ccc2ccccc2c1)[C@@H](C)CC)[C@@H](C)CC` [AP328, (2-NA)--G--G--R--I--D--R--I--NH(ethyl)] ({Acetyl(2-naphthyl)}-GGRIDRI-NHEt), the “Ki(app)” value is 0.01987 µM.
Turning to `CC[C@H](C)[C@H](NC(=O)[C@H](CCCNC(=N)N)NC(=O)[C@H](CC(=O)O)NC(=O)[C@@H](NC(=O)[C@H](CCCNC(=N)N)NC(=O)CCCCCNC(=O)Cc1ccc2ccccc2c1)[C@@H](C)CC)C(N)=O` [AP329, (2-NA)--NH(CH2)5 CO--R--I--D--R--I--NH2] ({Acetyl(2-naphthyl)-Ahx}-RIDRI-NH2), the “Ki(app)” value came out at 0.14778 µM.
For the compound `CC[C@H](C)[C@H](NC(=O)[C@H](CCCNC(=N)N)NC(=O)[C@H](CC(=O)O)NC(=O)[C@@H](NC(=O)[C@H](CCCNC(=N)N)NC(=O)CNC(=O)[C@@H](CO)NC(=O)Cc1ccc2ccccc2c1)[C@@H](C)CC)C(N)=O` [AP330, (2-NA)--S^ --G--R--I--D--R--I--NH2] ({Acetyl(2-naphthyl)}-[dS]GRIDRI-NH2), the “Ki(app)” value was 0.0164 µM.
As to `CC[C@H](C)[C@H](NC(=O)[C@H](CCCNC(=N)N)NC(=O)[C@H](CC(=O)O)NC(=O)[C@@H](NC(=O)[C@H](CCCNC(=N)N)NC(=O)CNC(=O)CNC(=O)CC(c1ccccc1)c1ccccc1)[C@@H](C)CC)C(=O)NCC(=O)N[C@@H](C)C(N)=O` [AP331, (3-DPP)--G--G--R--I--D--R--I--G--A--NH2] ({Propanoyl(3,3-Ph2)}-GGRIDRIGA-NH2), the “Ki(app)” value is 0.00615 µM.
Turning to `CC[C@H](C)[C@H](NC(=O)[C@H](CCCNC(=N)N)NC(=O)CNC(=O)CNC(=O)Cc1ccc2ccccc2c1)C(=O)N[C@@H](CC(=O)O)C(=O)N[C@@H](CCCNC(=N)N)C(=O)N[C@@H](CC(C)C)C(N)=O` [AP332, (2-NA)--G--G--R--I--D--R--L--NH2] ({Acetyl(2-naphthyl)}-GGRIDRL-NH2), the “Ki(app)” value turned out to be 0.0442 µM.
On to `CC[C@H](C)[C@H](NC(=O)[C@H](CCCNC(=N)N)NC(=O)CNC(=O)CNC(=O)Cc1ccc2ccccc2c1)C(=O)N[C@@H](CC(=O)O)C(=O)N[C@@H](CCCNC(=N)N)C(=O)N[C@H](C(N)=O)C(C)C` [AP333, (2-NA)--G--G--R--I--D--R--V--NH2] ({Acetyl(2-naphthyl)}-GGRIDRV-NH2), for which the “Ki(app)” value is 0.1064 µM.
For `CC[C@H](C)[C@H](NC(=O)[C@H](CCCNC(=N)N)NC(=O)[C@H](CC(=O)O)NC(=O)[C@@H](NC(=O)[C@H](CCCNC(=N)N)NC(=O)CNC(=O)CNC(=O)CC1CCCCC1)[C@@H](C)CC)C(N)=O` [AP334, (CHA)--G--G--R--I--D--R--I--NH2] (Cyclohexylacetyl-GGRIDRI-NH2), the “Ki(app)” value was found to be 0.0928 µM.
`CC[C@H](C)[C@H](NC(=O)[C@H](CCCNC(=N)N)NC(=O)[C@H](CC(=O)O)NC(=O)[C@@H](NC(=O)[C@H](C)NC(=O)CNC(=O)CNC(=O)Cc1ccc2ccccc2c1)[C@@H](C)CC)C(N)=O` [AP338, (2-NA)--G--G--A--I--D--R--I--NH2] ({Acetyl(2-naphthyl)}-GGAIDRI-NH2): the “Ki(app)” value amounted to 0.0826 µM.
Next, `CC[C@H](C)[C@H](NC(=O)[C@H](CCC(N)=O)NC(=O)[C@H](CC(=O)O)NC(=O)[C@@H](NC(=O)[C@H](CCCNC(=N)N)NC(=O)CNC(=O)CNC(=O)Cc1ccc2ccccc2c1)[C@@H](C)CC)C(N)=O` [AP351, (2-NA)--G--G--R--I--D--Q--I--NH2] ({Acetyl(2-naphthyl)}-GGRIDQI-NH2): 0.02 µM; `CC[C@H](C)[C@H](NC(=O)[C@H](CCCNC(=N)N)NC(=O)CNC(=O)CNC(=O)COc1ccc2ccccc2c1)C(=O)N[C@@H](CC(=O)O)C(=O)N[C@@H](CCCNC(=N)N)C(=O)NCC(C)C` [AP509] ({Acetyl(2-naphthyloxy)}-GGRIDR-NHiBu): 0.12 µM.
Next, `CC[C@H](C)[C@H](NC(=O)[C@H](CCCNC(=N)N)NC(=O)CNC(=O)CNC(=O)Cc1ccc2ccccc2c1)C(=O)N[C@@H](CC(=O)O)C(=O)N[C@@H](CCCNC(=N)N)C(=O)NCC(C)C` [AP510] ({Acetyl(2-naphthyl)}-GGRIDR-NHiBu): 0.116 µM.
